For the experiment, the target named is one or more of HDAC4, HDAC5, HDAC6, HDAC7, HDAC8, HDAC9 and HDAC11. As to the kind of experiment: Inhibition of histone deacetylase enzymatic activity (fluorogenic Boc-Lys(Ac)-AMC / Boc-Lys(trifluoroacetyl)-AMC substrate). It counts as biochemical. Conditions: against one or more of HDAC4, HDAC5, HDAC6, HDAC7, HDAC8, HDAC9 and HDAC11. As to the method:
Inhibition of HDAC-1,2,3,6 and 8
The following protocol is used to assay the compounds of the invention. In the assay, the buffer used is 25 mM HEPES, pH 8.0, 137 mM NaCl, 2.7 mM KCl, 1 mM MgCl2 and the substrate is Boc-Lys(Ac)-AMC in a 50 mM stock solution in DMSO. The enzyme stock solution is 4.08 μg/mL in buffer.
The compounds are pre-incubated (2 μl, in DMSO diluted to […] in buffer for transfer to assay plate) with enzyme (20 μL of 4.08 μg/mL) for 10 minutes at room temperature (35 μL pre-incubation volume). The mixture is pre-incubated for 5 minutes at room temperature. The reaction is started by bringing the temperature to 37° C. and adding 15 μL substrate. Total reaction volume is 50 μL. The reaction is stopped after 20 minutes by addition of 50 μL developer, prepared as directed by Biomol (FLUOR DE LYS™ developer, Cat. # KI-105). A plate is incubated in the dark for 10 minutes at room temperature before reading (λEx=360 nm, λEm=470 nm, Cutoff filter at 435 nm).
Inhibition of Class II HDAC and HDAC-11
A 30 mM stock of Boc-Lys(trifluoroacetyl)-AMC substrate is prepared in DMSO. 2 μL test compound in DMSO is diluted to 50 μL in buffer (25 mM HEPES, pH 8.0, 137 mM NaCl, 2.7 mM KCl, 1 mM MgCl2, 0.1% BSA) and pre-incubated with HDAC enzyme (30 μL of a final enzyme concentration of 0.1-0.2 nM) for 10 minutes at room temperature. Reaction is started by adding 18 μL Boc-Lys(trifluoroacetyl)-AMC substrate and incubating at 37° C. for 20-30 minutes. The reaction is stopped by adding 50 μL trypsin (1 mg/mL) and a known HDAC inhibitor. The plate is then incubated in the dark for 20 minutes at room temperature and read with Ex=360 nm, Em=470 nm, cutoff filter at 435 nm.

On to `O=C(NO)c1sc(C2CCN(Cc3ccccc3)CC2)nc1-c1ccccc1` [Compound 132, 2-(1-benzylpiperidin-4-yl)-N-hydroxy-4-phenylthiazole-5-carboxamide], for which the IC50 (as a rule, the concentration at which inhibition is half-maximal) was less than 250 nM.
`O=C(NO)c1sc(-c2csc3ccccc23)nc1-c1ccccc1` [Compound 110, 2-(benzo[b]thiophen-3-yl)-N-hydroxy-4-phenylthiazole-5-carboxamide]: the IC50 was less than 250 nM.
Consider `O=C(NO)c1ccccc1-c1cccc([N+](=O)[O-])c1` [Compound 26, N-hydroxy-3′-nitrobiphenyl-2-carboxamide], for which the IC50 fell in the range of 750 to 5000 nM.
As for `COc1ccc(-c2nc(-c3ccc(F)cc3)c(C(=O)NO)s2)cc1` [Compound 80, 4-(4-fluorophenyl)-N-hydroxy-2-(4-methoxyphenyl)thiazole-5-carboxamide], the concentration for half-maximal inhibition (IC50) was less than 250 nM.
To `O=C(NO)c1sc2ccc(NS(=O)(=O)c3cccs3)cc2c1-c1ccccc1` [Compound 160] belongs 250 to 500 nM; to `O=C(NO)c1sc(-c2ccccc2)cc1-c1ccccc1` [Compound 86, N-hydroxy-3,5-diphenylthiophene-2-carboxamide], less than 250 nM; to `O=C(NO)c1ccc(CN2C(=O)c3ccccc3Oc3ccccc32)cc1-c1ccccc1` [Compound 162, N-hydroxy-5-((11-oxodibenzo[b,f] [1,4]oxazepin-10(11H)-yl)methyl)biphenyl-2-carboxamide], less than 250 nM.
`O=C(NO)c1ccccc1-c1cccc(-c2ccccc2)c1` [Compound 13] displayed an IC50 of 750 to 5000 nM.
On to `COc1cccc(-c2ccccc2C(=O)NO)c1` [Compound 19, N-hydroxy-3′-melhoxybipheny 1-2-carboxamide], for which the IC50 was 750 to 5000 nM.
The compound `O=C(NO)c1sc(Cc2ccccc2)cc1-c1ccccc1` [Compound 130, 5-benzyl-N-hydroxy-3-phenylthiophene-2-carboxamide] yielded an IC50 of less than 250 nM.
The compound `CS(=O)(=O)N1CCC(c2nc(-c3ccccc3)c(C(=O)NO)s2)CC1` [Compound 148, N-hydroxy-2-(1-(methylsulfonyl)piperidin-4-yl)-4-phenylthiazole-5-carboxamide] came in with an IC50 of less than 250 nM.
Under `O=C(NO)c1cn(-c2ccccc2)nc1-c1ccccc1` [Compound 32, N-hydroxy-1,3-diphenyl-1H-pyrazole-4-carboxamidc] stands 500 to 750 nM; under `Cc1cscc1-c1cccc(-c2ccccc2C(=O)NO)c1` [Compound 29, N-hydroxy-3′-(4-methyl-thiophen-3-yl) biphcnyl-2-carboxamidc], 500 to 750 nM; under `O=C(NO)c1cn(Cc2ccccc2)nc1-c1ccccc1` [Compound 106, 1-benzyl-N-hydroxy-3-phenyl 1H-pyrazole-4-carboxamide], 250 to 500 nM.
Compound `O=C(NO)c1ccc(-c2ccccc2)cc1-c1ccccc1` [Compound 52] displayed an IC50 of less than 250 nM.
As to `O=C(NO)c1ccc(C2=Nc3ccccc3Oc3ccccc32)cc1-c1ccccc1` [Compound 104, (Z)-5-(dibenzo[b,f][1,4]oxazepin-11-yl)-N-hydroxybiphenyl-2-carboxamide], the IC50 was less than 250 nM.
For `O=C(NO)c1sc(-c2ccc3c(c2)OCO3)nc1-c1ccccc1` [compound 81], the concentration for half-maximal inhibition (IC50) is less than 250 nM.
Consider `CN(C)c1ccc(-c2ccc(C(=O)NO)c(-c3ccccc3)c2)cc1` [Compound 116, 5-(4-dimethylamino-phenyl)-N-hydroxybiphenyl-2-carboxamide], for which the IC50 is less than 250 nM.

(Values after patent US8673911B2, “Inhibitors of histone deacetylase” (MethylGene Inc., priority 2007, dated 2014).)
